In PubChem BioAssay AID2060343 (Molecular Pharmacology Branch, DTP, NCI, 2025):

System: 138582-337-R-J1-PDC spheroids with HUVEC/MSC, viability
Assay: Anticancer human tumor 138582-337-R-J1-PDC patient-derived Merkel cell tumor cell line growth inhibition [IpAb]
Settings: for IC50: curve of first compound; for viability, T/C: stronger effect = lower value
Summary of the method: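 Combinations with ipatasertib or abemaciclib were tested on tumour spheroids holding HUVEC (25%) and MSC (15%) alongside 60% malignant cells. Top concentration was at or near clinical Cmax (10 microM if undefined), descending in half-log steps.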
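Note: spheroids exposed to compounds for seven days.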
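Throughout, for viability, T/C: 100% = DMSO vehicle control viability.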

## Cn1cnc2c(F)c(Nc3ccc(Br)cc3Cl)c(C(=O)NOCCO)cc21 + CCN1CCN(Cc2ccc(Nc3ncc(F)c(-c4cc(F)c5nc(C)n(C(C)C)c5c4)n3)nc2)CC1
Second compound 0.01 µM
  IC50: > 3 µM
Second compound 0.0316 µM
  IC50: > 3 µM
Second compound 0.1 µM
  IC50: > 3 µM
Second compound 0.316 µM
  IC50: > 3 µM
Second compound 1 µM
  IC50: 1.88 µM
Second compound 0.01 µM, first compound 0.00949 µM
  viability, T/C: 102%
Second compound 0.01 µM, first compound 0.03 µM
  viability, T/C: 94.5%
Second compound 0.01 µM, first compound 0.0949 µM
  viability, T/C: 75.3%
Second compound 0.01 µM, first compound 0.3 µM
  viability, T/C: 81.2%
Second compound 0.01 µM, first compound 0.949 µM
  viability, T/C: 94%
Second compound 0.01 µM, first compound 3 µM
  viability, T/C: 93.1%
Second compound 0.0316 µM, first compound 0.00949 µM
  viability, T/C: 94.8%
Second compound 0.0316 µM, first compound 0.03 µM
  viability, T/C: 91%
Second compound 0.0316 µM, first compound 0.0949 µM
  viability, T/C: 67.1%
Second compound 0.0316 µM, first compound 0.3 µM
  viability, T/C: 79.6%
Second compound 0.0316 µM, first compound 0.949 µM
  viability, T/C: 86.8%
Second compound 0.0316 µM, first compound 3 µM
  viability, T/C: 88.3%
Second compound 0.1 µM, first compound 0.00949 µM
  viability, T/C: 102%
Second compound 0.1 µM, first compound 0.03 µM
  viability, T/C: 88.2%
Second compound 0.1 µM, first compound 0.0949 µM
  viability, T/C: 78.3%
Second compound 0.1 µM, first compound 0.3 µM
  viability, T/C: 68.7%
Second compound 0.1 µM, first compound 0.949 µM
  viability, T/C: 76.9%
Second compound 0.1 µM, first compound 3 µM
  viability, T/C: 73.1%
Second compound 0.316 µM, first compound 0.00949 µM
  viability, T/C: 88.8%
Second compound 0.316 µM, first compound 0.03 µM
  viability, T/C: 90.8%
Second compound 0.316 µM, first compound 0.0949 µM
  viability, T/C: 83%
Second compound 0.316 µM, first compound 0.3 µM
  viability, T/C: 66%
Second compound 0.316 µM, first compound 0.949 µM
  viability, T/C: 72.9%
Second compound 0.316 µM, first compound 3 µM
  viability, T/C: 56.3%
Second compound 1 µM, first compound 0.00949 µM
  viability, T/C: 96.1%
Second compound 1 µM, first compound 0.03 µM
  viability, T/C: 90.2%
Second compound 1 µM, first compound 0.0949 µM
  viability, T/C: 78%
Second compound 1 µM, first compound 0.3 µM
  viability, T/C: 74.5%
Second compound 1 µM, first compound 0.949 µM
  viability, T/C: 73.1%
Second compound 1 µM, first compound 3 µM
  viability, T/C: 37.1%

## CCCS(=O)(=O)Nc1ccc(F)c(C(=O)c2c[nH]c3ncc(-c4ccc(Cl)cc4)cc23)c1F + CC(C)NCC(C(=O)N1CCN(c2ncnc3c2C(C)CC3O)CC1)c1ccc(Cl)cc1
Second compound 0.1 µM
  IC50: > 10 µM
Second compound 0.316 µM
  IC50: > 10 µM
Second compound 1 µM
  IC50: 4.18 µM
Second compound 3.16 µM
  IC50: < 0.0316 µM
Second compound 10 µM
  IC50: < 0.0316 µM
Second compound 0.1 µM, first compound 0.0316 µM
  viability, T/C: 87.4%
Second compound 0.1 µM, first compound 0.1 µM
  viability, T/C: 86.3%
Second compound 0.1 µM, first compound 0.316 µM
  viability, T/C: 88.9%
Second compound 0.1 µM, first compound 1 µM
  viability, T/C: 89.7%
Second compound 0.1 µM, first compound 3.16 µM
  viability, T/C: 102%
Second compound 0.1 µM, first compound 10 µM
  viability, T/C: 68.2%
Second compound 0.316 µM, first compound 0.0316 µM
  viability, T/C: 73.2%
Second compound 0.316 µM, first compound 0.1 µM
  viability, T/C: 77.2%
Second compound 0.316 µM, first compound 0.316 µM
  viability, T/C: 66%
Second compound 0.316 µM, first compound 1 µM
  viability, T/C: 68%
Second compound 0.316 µM, first compound 3.16 µM
  viability, T/C: 71.7%
Second compound 0.316 µM, first compound 10 µM
  viability, T/C: 51.6%
Second compound 1 µM, first compound 0.0316 µM
  viability, T/C: 67.3%
Second compound 1 µM, first compound 0.1 µM
  viability, T/C: 61.2%
Second compound 1 µM, first compound 0.316 µM
  viability, T/C: 61.3%
Second compound 1 µM, first compound 1 µM
  viability, T/C: 54.5%
Second compound 1 µM, first compound 3.16 µM
  viability, T/C: 58%
Second compound 1 µM, first compound 10 µM
  viability, T/C: 36%
Second compound 3.16 µM, first compound 0.0316 µM
  viability, T/C: 47.2%
Second compound 3.16 µM, first compound 0.1 µM
  viability, T/C: 48.5%
Second compound 3.16 µM, first compound 0.316 µM
  viability, T/C: 47.1%
Second compound 3.16 µM, first compound 1 µM
  viability, T/C: 45%
Second compound 3.16 µM, first compound 3.16 µM
  viability, T/C: 42.5%
Second compound 3.16 µM, first compound 10 µM
  viability, T/C: 21.3%
Second compound 10 µM, first compound 0.0316 µM
  viability, T/C: 41.8%
Second compound 10 µM, first compound 0.1 µM
  viability, T/C: 47.8%
Second compound 10 µM, first compound 0.316 µM
  viability, T/C: 43.7%
Second compound 10 µM, first compound 1 µM
  viability, T/C: 35.7%
Second compound 10 µM, first compound 3.16 µM
  viability, T/C: 31.1%
Second compound 10 µM, first compound 10 µM
  viability, T/C: 1.88%
